Experimental data taken from ChEMBL document CHEMBL3421579, “Absolute configuration of labdane diterpenoids from Physalis nicandroides” (J Nat Prod, 2015).

Assays:
Mus musculus [1] = experiment: Anti-inflammatory activity in CD1 mouse model of TPA-induced ear edema assessed as inhibition of ear edema at 0.1 to 1 umol/ear applied to right ear 10 mins after TPA-stimulation and measured 4 hrs post compound dose; assay type: functional, organism-based
Mus musculus [2] = experiment: Anti-inflammatory activity in CD1 mouse model of TPA-induced ear edema assessed as inhibition of ear edema at 1 umol/ear applied to right ear 10 mins after TPA-stimulation and measured 4 hrs post compound dose; assay type: functional
Mus musculus [3] = experiment: Anti-inflammatory activity in CD1 mouse model of TPA-induced ear edema assessed as inhibition of ear edema at 0.1 to 1 umol/ear applied to right ear 10 mins after TPA-stimulation and measured 4 hrs post compound dose relative to indomethacin; assay type: functional

Row | IC50 (Mus musculus [1]) | Compound | inhibition (INH) (Mus musculus [2]) | Ratio IC50 (Mus musculus [3])
1 | 0.297 µmol | COc1ccc2c(c1)c(CC(=O)O)c(C)n2C(=O)c1ccc(Cl)cc1 [INDOMETHACIN] | – | –
2 | 0.67 µmol | C/C(=C\CO)CC[C@@H]1[C@@]2(C)CCCC(C)(C)[C@@H]2CC[C@@]1(C)O | 64.32% | 2
3 | – | C=C1CC[C@H]2C(C)(C)CCC[C@]2(C)[C@H]1CC/C(=C/CO)CO | 41.35% | –
